These results are taken from patent US6436959B1 (priority 1998, dated 2002).

One test has as its target μ-opioid receptor (Rattus norvegicus, UniProt P33535). To be noted: read-out: Ki in binding to the μ-opioid receptor; rat forebrain preparation, [3H]DAMGO, 25° C.
Test [1] relates to acetylcholine bromide-induced abdominal constriction response. Nature of the test: Mouse Acetylcholine Bromide-Induced Abdominal Constriction Assay. Format: in vivo. To be noted: p.o., 30 minutes before i.p. 5.5 mg/kg acetylcholine bromide, % inhibition of constriction response (% analgesia). The procedure: C) Mouse Acetylcholine Bromide-Induced Abdominal Constriction Assay
The mouse acetylcholine-induced abdominal constiction assay, as described by Collier et al. in Brit. J. Pharmacol. Chem. Ther., 32: 295-310, 1968, with minor modifications was used to assess analgesic potency of the compounds of formula (I). The test drugs or appropriate vehicles were administered orally (p.o.) and 30 minutes later the animal received an intraperitoneal (i.p.) injection of 5.5 mg/kg acetylcholine bromide (Matheson, Coleman and Bell, East Rutherford, N.J.). The mice were then placed in groups of three into glass bell jars and observed for a ten minute observation period for the occurrence of an abdominal constriction response (defined as a wave of constriction and elongation passing caudally along the abdominal wall, accompanied by a twisting of the trunk and followed by extension of the hind limbs). The percent inhibition of this response to a nociceptive stimulus (equated to % analgesia) was calculated as follows: The % inhibition of response, i.e., % analgesia is equal to the difference between the No. of control animal responses and the No. of drug-treated animal responses times 100 divided by the No. of control animals responding.

In another test the target is T1, δ-opioid receptor (Rattus norvegicus, UniProt P33533).
T1 construct: the forebrains are homogenized in Tris buffer in a Teflon®-glass homogenizer; from tissue; host or cells: forebrain of male Wistar rats, particulate (membrane) preparation
To be noted: read-out: Ki in binding to the δ-opioid receptor.

In the next test the target is T2, opioid delta receptor (Homo sapiens, UniProt P41143).
T2 construct: purchased Receptor Biology, Baltimore, Md; host or cells: CHO cells (recombinant, membranes)
The test is classed as binding.

T2 sequence (P41143 whole entry): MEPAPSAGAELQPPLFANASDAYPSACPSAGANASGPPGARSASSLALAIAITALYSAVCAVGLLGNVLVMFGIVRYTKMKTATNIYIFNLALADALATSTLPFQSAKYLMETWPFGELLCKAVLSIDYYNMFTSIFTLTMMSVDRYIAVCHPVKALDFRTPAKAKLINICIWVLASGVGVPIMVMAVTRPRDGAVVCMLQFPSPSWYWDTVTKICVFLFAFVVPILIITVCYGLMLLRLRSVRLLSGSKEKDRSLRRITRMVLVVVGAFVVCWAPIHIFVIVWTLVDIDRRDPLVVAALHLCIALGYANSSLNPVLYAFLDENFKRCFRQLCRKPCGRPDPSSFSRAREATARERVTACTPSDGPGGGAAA
T1 sequence (P33533 whole entry): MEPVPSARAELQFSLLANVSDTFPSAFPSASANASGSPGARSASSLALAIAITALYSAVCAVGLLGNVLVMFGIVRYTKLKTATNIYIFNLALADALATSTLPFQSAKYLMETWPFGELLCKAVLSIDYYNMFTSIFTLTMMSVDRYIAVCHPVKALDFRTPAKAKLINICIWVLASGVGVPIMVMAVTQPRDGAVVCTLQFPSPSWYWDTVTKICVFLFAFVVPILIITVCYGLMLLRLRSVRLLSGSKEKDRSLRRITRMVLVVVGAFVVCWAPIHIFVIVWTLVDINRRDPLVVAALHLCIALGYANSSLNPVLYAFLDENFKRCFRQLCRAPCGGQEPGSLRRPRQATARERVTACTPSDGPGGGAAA
Sequence of μ-opioid receptor (P33535 whole entry): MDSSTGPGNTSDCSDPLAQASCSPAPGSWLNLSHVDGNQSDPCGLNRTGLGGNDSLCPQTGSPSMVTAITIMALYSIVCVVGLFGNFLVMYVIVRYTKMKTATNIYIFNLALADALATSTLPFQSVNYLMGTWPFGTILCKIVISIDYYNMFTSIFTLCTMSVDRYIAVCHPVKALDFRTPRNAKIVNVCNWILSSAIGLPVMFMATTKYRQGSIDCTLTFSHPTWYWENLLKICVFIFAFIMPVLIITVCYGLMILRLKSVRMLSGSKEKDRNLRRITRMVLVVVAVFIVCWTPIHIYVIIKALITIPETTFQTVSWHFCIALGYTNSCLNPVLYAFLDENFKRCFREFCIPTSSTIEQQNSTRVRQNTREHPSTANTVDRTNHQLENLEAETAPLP

As for `CCCN1CCC(N(c2ccccc2)c2cccc(C(=O)N(C)c3ccccc3)c2)CC1.O=C(O)/C=C/C(=O)O` [C4, N-Methyl-N-phenyl-3-[phenyl(1-propylpiperidin-4-yl)amino]benzamide Fumarate[1:1.4]], the values for the Ki at μ-opioid receptor and on δ-opioid receptor were 153 nM and 25 nM, respectively. The compound also displayed a median effective dose (ED50) in test [1] of 4.2 µmol/kg. Moreover, the “% I @ 25 μM” value on opioid delta receptor turned out to be 41%.

As a reminder, the Ki is a dissociation constant, usually derived from enzyme kinetics or from competition with a known ligand. In general, ED50 refers to the dose at which the effect has come halfway, by size or by number of responders.
